Measured values: ChEMBL document CHEMBL5233233, “Histone deacetylase 3 (HDAC3) inhibitors as anticancer agents: A review” (Eur J Med Chem, 2020)

Tests used:
[1] = molecular target: T1, Histone deacetylase 1 (Homo sapiens, UniProt Q13547); experiment: Inhibition of human HDAC1 using human HeLa cell nuclear extract at 1 uM measured after 60 mins by fluorescence assay; type: subcellular, Nucleus
[2] = molecular target: T2, Histone deacetylase 3 (Homo sapiens, UniProt O15379); experiment: Inhibition of human HDAC3 using human HeLa cell nuclear extract at 1 uM measured after 60 mins by fluorescence assay; type: subcellular, Nucleus
[3] = molecular target: T3, Histone deacetylase 2 (Homo sapiens, UniProt Q92769); experiment: Inhibition of human HDAC2 using human HeLa cell nuclear extract at 1 uM measured after 60 mins by fluorescence assay; type: subcellular, Nucleus
[4] = molecular target: T4, Protein deacetylase HDAC6 (Homo sapiens, UniProt Q9UBN7); experiment: Inhibition of human recombinant HDAC6 using (FAM)-labeled acetylated peptide substrate at 1 uM incubated for 17 hrs by fluorescence based analysis
T4 sequence (Q9UBN7 whole entry): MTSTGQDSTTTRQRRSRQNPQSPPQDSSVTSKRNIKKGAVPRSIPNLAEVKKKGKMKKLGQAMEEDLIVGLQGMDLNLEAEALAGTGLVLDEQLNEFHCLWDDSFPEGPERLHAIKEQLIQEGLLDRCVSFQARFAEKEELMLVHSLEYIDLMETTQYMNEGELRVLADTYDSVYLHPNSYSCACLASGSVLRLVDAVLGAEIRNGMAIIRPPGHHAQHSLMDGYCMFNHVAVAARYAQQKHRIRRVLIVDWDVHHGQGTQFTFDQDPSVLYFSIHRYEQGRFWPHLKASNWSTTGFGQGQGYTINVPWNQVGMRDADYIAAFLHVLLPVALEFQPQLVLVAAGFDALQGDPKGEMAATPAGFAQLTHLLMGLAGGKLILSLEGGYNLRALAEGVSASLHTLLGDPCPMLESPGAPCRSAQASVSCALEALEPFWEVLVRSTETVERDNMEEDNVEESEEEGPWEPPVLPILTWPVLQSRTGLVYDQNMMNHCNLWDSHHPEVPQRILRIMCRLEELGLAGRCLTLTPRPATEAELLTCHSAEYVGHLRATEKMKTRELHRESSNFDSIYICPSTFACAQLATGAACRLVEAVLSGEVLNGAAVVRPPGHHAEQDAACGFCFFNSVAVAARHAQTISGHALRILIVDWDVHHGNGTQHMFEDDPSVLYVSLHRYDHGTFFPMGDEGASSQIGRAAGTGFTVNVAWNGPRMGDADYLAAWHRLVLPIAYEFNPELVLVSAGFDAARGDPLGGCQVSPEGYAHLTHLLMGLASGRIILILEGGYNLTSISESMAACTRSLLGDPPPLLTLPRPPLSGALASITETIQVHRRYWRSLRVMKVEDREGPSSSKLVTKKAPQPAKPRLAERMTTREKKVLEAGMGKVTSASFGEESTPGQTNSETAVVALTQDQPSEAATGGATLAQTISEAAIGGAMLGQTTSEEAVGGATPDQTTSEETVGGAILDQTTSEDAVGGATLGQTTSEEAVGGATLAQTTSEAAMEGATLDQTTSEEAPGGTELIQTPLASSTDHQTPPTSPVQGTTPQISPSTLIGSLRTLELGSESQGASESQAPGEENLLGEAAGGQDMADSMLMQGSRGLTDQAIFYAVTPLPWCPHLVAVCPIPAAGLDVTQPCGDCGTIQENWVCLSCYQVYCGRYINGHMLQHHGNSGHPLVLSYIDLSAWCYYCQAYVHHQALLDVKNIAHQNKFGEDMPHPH

[5] = molecular target: T1, Histone deacetylase 1; experiment: Inhibition of human recombinant HDAC1 using (FAM)-labeled acetylated peptide substrate at 1 uM incubated for 17 hrs by fluorescence based analysis
[6] = molecular target: T3, Histone deacetylase 2; experiment: Inhibition of human recombinant HDAC2 using (FAM)-labeled acetylated peptide substrate at 1 uM incubated for 17 hrs by fluorescence based analysis
[7] = molecular target: T5, Histone deacetylase 8 (Homo sapiens, UniProt Q9BY41); experiment: Inhibition of human recombinant HDAC8 using (FAM)-labeled acetylated peptide substrate at 1 uM incubated for 17 hrs by fluorescence based analysis
T5 sequence (Q9BY41 whole entry): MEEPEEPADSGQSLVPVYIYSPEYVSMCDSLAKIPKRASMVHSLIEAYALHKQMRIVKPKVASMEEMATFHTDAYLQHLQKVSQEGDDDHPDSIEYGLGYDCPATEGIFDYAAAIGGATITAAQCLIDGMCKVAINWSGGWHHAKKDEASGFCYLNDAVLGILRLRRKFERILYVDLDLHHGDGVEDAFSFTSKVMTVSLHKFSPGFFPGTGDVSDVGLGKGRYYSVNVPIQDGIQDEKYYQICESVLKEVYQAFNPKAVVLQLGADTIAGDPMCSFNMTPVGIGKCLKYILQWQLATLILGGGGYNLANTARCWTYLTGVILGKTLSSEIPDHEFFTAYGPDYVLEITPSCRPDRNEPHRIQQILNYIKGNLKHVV

[8] = molecular target: T2, Histone deacetylase 3; experiment: Inhibition of HDAC3 (unknown origin) using acetylated 7-amino-4-methylcoumarin (AMC) as peptide substrate measured after 20 mins by fluorescence based analysis
[9] = molecular target: T1, Histone deacetylase 1; experiment: Inhibition of HDAC1 (unknown origin) using acetylated 7-amino-4-methylcoumarin (AMC) as peptide substrate measured after 20 mins by fluorescence based analysis
[10] = molecular target: T3, Histone deacetylase 2; experiment: Inhibition of HDAC2 (unknown origin) using acetylated 7-amino-4-methylcoumarin (AMC) as peptide substrate measured after 20 mins by fluorescence based analysis
[11] = molecular target: T2, Histone deacetylase 3; experiment: Inhibition of HDAC3 (unknown origin)
[12] = molecular target: T1, Histone deacetylase 1; experiment: Inhibition of HDAC1 (unknown origin) using Boc-Lys (Ac)-AMC as substrate measured after 30 mins by fluorescence based analysis
[13] = molecular target: T3, Histone deacetylase 2; experiment: Inhibition of HDAC2 (unknown origin)
[14] = molecular target: Histone deacetylase; experiment: Inhibition of human HDAC using human HeLa cell nuclear extract measured after 60 mins by fluorescence assay; type: subcellular, Nucleus
[15] = molecular target: T1, Histone deacetylase 1; experiment: Inhibition of HDAC1 (unknown origin)
[16] = molecular target: T3, Histone deacetylase 2; experiment: Inhibition of human recombinant HDAC2 expressed in baculovirus by using Boc-L-Lys(Ac)-AMC as substrate measured after 24 hrs by fluorescence based analysis
[17] = molecular target: T5, Histone deacetylase 8; experiment: Inhibition of human recombinant HDAC8 expressed in Escherichia coli BL21 (DE3) cells by using Boc-L-Lys(Ac)-AMC as substrate measured after 24 hrs by fluorescence based analysis
[18] = molecular target: T1, Histone deacetylase 1; experiment: Inhibition of human recombinant HDAC1 expressed in baculovirus by using Boc-L-Lys(Ac)-AMC as substrate measured after 24 hrs by fluorescence based analysis
[19] = molecular target: T2, Histone deacetylase 3; experiment: Inhibition of human recombinant HDAC3 expressed in baculovirus by using Boc-L-Lys(Ac)-AMC as substrate measured after 24 hrs by fluorescence based analysis
[20] = molecular target: T4, Protein deacetylase HDAC6; experiment: Inhibition of HDAC6 (unknown origin) using Boc-Lys (Ac)-AMC as substrate measured after 30 mins by fluorescence based analysis
[21] = molecular target: T2, Histone deacetylase 3; experiment: Inhibition of HDAC3 (unknown origin) using Boc-Lys (Ac)-AMC as substrate measured after 30 mins by fluorescence based analysis

T1 sequence (Q13547 whole entry): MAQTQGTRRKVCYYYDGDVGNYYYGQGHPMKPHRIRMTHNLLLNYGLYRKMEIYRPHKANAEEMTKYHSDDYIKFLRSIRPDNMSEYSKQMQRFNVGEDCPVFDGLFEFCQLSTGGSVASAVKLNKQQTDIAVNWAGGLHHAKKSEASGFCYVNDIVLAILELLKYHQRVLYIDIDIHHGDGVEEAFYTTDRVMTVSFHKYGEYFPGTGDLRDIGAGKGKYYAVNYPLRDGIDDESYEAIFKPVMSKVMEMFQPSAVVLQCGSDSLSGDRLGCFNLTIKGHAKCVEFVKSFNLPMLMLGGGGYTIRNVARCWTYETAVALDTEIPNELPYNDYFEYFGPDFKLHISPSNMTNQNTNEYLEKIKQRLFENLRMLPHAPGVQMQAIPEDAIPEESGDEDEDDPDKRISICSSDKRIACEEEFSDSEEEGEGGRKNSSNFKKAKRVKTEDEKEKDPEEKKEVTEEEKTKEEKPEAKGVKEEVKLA
T2 sequence (O15379 whole entry): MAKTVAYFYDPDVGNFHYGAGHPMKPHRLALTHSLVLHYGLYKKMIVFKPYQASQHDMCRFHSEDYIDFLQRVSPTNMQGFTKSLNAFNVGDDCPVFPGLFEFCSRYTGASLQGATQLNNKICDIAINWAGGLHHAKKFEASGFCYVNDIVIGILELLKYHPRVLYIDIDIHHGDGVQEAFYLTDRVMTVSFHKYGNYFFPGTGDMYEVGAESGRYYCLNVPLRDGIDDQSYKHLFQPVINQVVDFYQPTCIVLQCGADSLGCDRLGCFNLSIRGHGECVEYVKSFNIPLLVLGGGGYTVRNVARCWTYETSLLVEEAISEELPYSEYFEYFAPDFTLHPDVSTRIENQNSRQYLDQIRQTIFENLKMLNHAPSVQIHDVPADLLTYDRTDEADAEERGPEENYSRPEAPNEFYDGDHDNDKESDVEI
T3 sequence (Q92769 whole entry): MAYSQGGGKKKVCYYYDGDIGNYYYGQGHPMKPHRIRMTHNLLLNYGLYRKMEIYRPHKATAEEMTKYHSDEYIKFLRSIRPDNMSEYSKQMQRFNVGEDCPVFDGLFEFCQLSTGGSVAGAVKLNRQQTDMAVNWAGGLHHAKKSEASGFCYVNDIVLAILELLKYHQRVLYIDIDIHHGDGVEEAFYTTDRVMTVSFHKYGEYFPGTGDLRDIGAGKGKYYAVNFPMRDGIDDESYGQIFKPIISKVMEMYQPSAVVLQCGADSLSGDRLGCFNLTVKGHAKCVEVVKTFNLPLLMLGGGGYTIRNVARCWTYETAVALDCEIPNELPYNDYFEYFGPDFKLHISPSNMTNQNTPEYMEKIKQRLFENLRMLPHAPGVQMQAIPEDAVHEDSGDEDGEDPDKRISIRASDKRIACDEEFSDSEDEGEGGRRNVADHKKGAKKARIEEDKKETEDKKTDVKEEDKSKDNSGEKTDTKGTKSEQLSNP

Cc1noc(C)c1-c1ccc2c(c1)c(CCc1ccccc1)cn2CCCCCCC(=O)NO
IC50 [1]: 240 nM
IC50 [2]: 28 nM
IC50 [3]: 139 nM

Nc1ccccc1NC(=O)CCCCCCC(=O)Nc1cccc(-c2cn(-c3ccccc3)nn2)c1
IC50 [4]: > 30000 nM
IC50 [5]: > 30000 nM
IC50 [6]: > 30000 nM
IC50 [7]: > 30000 nM

Cc1noc(C)c1-c1ccc2c(c1)c(Cc1cccc(C(F)(F)F)c1)cn2CCCCCCC(=O)NO
IC50 [1]: 31 nM
IC50 [2]: 13 nM
IC50 [3]: 79 nM

O=C(NNCCCc1ccccc1)c1ccc(Br)cc1
IC50 [8]: 24200 nM
IC50 [9]: > 50000 nM
IC50 [10]: > 50000 nM

CCC(=O)CCCCC[C@H](NC(=O)C(C)(C)N(C)C)c1ncc(-c2cc3ccccc3nc2OC)o1
IC50 [11]: 0.6 nM

COC(=O)/C=C/c1ccc(OCCCCNc2cc3c([nH]c4ccccc43)c(-c3ccc(OC)cc3)n2)c(OC)c1
IC50 [12]: 61 nM

Nc1ccccc1NC(=O)c1ccc(-c2cn(CCc3cccc([N+](=O)[O-])c3)nn2)s1
IC50 [13]: > 100 nM

O=C(NNCCCC1CCCC1)c1ccc(Br)cc1
IC50 [8]: > 50000 nM
IC50 [9]: > 50000 nM
IC50 [10]: > 50000 nM

Cc1ccc(Cc2cn(CCCCCCC(=O)NO)c3ccc(-c4c(C)noc4C)cc23)cc1
IC50 [1]: 431 nM
IC50 [2]: 18 nM
IC50 [3]: 438 nM

O=C(NO)c1ccc(NC(=O)[C@@H](NC(=O)c2ccc(Cl)cc2)c2ccccc2)cc1
IC50 [14]: 348.6 nM

Cc1noc(C)c1-c1ccc2c(c1)c(CCc1ccc(F)cc1)cn2CCCCCC(=O)NO
IC50 [1]: 259 nM
IC50 [2]: 17 nM
IC50 [3]: 946 nM

CCCCNNC(=O)c1ccccc1
IC50 [8]: > 50000 nM
IC50 [9]: > 50000 nM
IC50 [10]: > 50000 nM

Nc1ccccc1NC(=O)c1ccc(-c2cn(CCc3ccsc3)nn2)cc1
IC50 [15]: > 100000 nM
IC50 [13]: > 19 nM

Cc1noc(C)c1-c1ccc2c(c1)c(Cc1ccc(F)cc1)cn2CCCCCCC(=O)NO
IC50 [1]: 181 nM
IC50 [3]: 298 nM

Cc1cc(CNCCCCCCC(=O)NO)ccc1F
IC50 [16]: 790 nM
IC50 [17]: 2800 nM
IC50 [18]: 140 nM
IC50 [19]: 190 nM

Cc1ccccc1Cc1cn(CCCCCCC(=O)NO)c2ccc(-c3c(C)noc3C)cc12
IC50 [1]: 220 nM
IC50 [2]: 50 nM
IC50 [3]: > 1000 nM

O=C(CCCCCCNCc1ccc([N+](=O)[O-])cc1)NO
IC50 [16]: 2900 nM
IC50 [17]: 2100 nM
IC50 [18]: 220 nM
IC50 [19]: 1000 nM

COC(=O)/C=C/c1ccc(OCCNc2cc3c([nH]c4ccccc43)c(-c3ccc(OC)cc3)n2)c(OC)c1
IC50 [12]: 32 nM
IC50 [20]: 17 nM
IC50 [21]: 125 nM

O=C(CCCCCCN(Cc1ccc(-c2ccccc2)s1)Cc1ccc(-c2ccccc2)s1)NO
IC50 [16]: 3000 nM
IC50 [17]: 4100 nM
IC50 [18]: 840 nM
IC50 [19]: 1100 nM
